These molecules were tested against S. aureus GyrB ATPase (Staphylococcus aureus, UniProt P0A0K8) (assay: biochemical). Details: compound at 1 μM; one value per test if tested more than once; read-out: % Inhibition of S. aureus GyrB ATPase.
How it was run: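 IC50 values derive from 10-point titrations of compound (in DMSO). Phosphate formed from 250 μM ATP was quantified by acidic molybdate/malachite green after quenching.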

Sequence of S. aureus GyrB ATPase (P0A0K8 whole entry): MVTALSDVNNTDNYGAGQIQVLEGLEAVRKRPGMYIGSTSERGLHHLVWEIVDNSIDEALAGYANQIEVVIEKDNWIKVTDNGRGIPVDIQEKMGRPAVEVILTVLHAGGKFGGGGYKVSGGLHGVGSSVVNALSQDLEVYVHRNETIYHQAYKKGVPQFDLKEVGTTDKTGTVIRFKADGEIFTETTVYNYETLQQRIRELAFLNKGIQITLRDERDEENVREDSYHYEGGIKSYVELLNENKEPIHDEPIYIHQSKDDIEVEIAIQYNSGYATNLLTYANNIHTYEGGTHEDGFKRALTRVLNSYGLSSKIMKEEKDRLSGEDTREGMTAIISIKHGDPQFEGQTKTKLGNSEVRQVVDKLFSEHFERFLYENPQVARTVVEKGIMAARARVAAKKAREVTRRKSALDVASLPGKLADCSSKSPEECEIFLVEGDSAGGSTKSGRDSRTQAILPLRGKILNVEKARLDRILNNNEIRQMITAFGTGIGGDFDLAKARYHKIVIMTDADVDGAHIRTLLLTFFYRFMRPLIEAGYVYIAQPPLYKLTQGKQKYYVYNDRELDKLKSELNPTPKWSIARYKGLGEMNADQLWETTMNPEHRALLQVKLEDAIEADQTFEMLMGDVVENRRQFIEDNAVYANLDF
Sequence of S. aureus GyrB ATPase (P0AES4 whole entry, further chain): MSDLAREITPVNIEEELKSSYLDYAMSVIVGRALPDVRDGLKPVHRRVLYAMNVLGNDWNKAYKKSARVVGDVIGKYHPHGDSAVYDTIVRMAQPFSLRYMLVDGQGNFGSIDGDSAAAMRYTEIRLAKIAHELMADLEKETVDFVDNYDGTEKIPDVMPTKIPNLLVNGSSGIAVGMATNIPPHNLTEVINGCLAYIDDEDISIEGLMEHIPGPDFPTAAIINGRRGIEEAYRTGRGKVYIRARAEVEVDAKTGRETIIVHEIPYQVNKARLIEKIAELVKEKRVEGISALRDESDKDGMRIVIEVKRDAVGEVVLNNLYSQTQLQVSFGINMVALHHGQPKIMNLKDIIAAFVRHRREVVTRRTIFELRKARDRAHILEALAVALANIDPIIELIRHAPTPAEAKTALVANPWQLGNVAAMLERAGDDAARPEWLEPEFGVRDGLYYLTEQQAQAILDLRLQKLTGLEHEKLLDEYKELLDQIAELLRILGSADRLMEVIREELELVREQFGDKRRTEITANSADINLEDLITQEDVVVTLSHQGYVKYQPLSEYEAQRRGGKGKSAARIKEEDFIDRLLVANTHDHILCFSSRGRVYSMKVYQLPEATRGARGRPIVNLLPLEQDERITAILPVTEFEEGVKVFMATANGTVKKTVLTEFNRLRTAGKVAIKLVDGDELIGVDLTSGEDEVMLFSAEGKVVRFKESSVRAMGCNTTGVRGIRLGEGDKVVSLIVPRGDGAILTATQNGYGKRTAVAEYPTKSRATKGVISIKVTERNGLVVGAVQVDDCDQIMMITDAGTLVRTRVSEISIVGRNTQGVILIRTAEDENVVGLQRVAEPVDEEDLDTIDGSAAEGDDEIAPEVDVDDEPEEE

| SMILES | inhibition at 1 µM |
| --- | --- |
| CCNC(=O)Nc1cc(-c2nc(C(F)(F)F)cs2)c(-c2ccc3c(c2)c(=O)c(C(=O)O)cn3[C@@H]2CCCN(CC)C2)cn1 [Example 252, (R)-1-(1-ethylpiperidin-3-yl)-6-(6-(3-ethylureido)-4-(4-(trifluoromethyl)thiazol-2-yl)pyridin-3-yl)-4-oxo-1,4-dihydroquinoline-3-carboxylic acid] | 105% |
| CCNC(=O)Nc1cc(-c2nc(C(F)(F)F)cs2)c(-c2ccc3c(c2)c(=O)c(C(=O)N2CCN(S(=O)(=O)N(C)C)CC2)cn3C(COC)COC)cn1 [Example 142, 4-{[1-(1,3-dimethoxypropan-2-yl)-6-{6-[(ethylcarbamoyl)amino]-4-[4-(trifluoromethyl)-1,3-thiazol-2-yl]pyridin-3-yl}-4-oxo-1,4-dihydroquinolin-3-yl]carbonyl}-N,N-dimethylpiperazine-1-sulfonamide] | 97% |
| CCNC(=O)Nc1cc(-c2nc(C(F)(F)F)cs2)c(-c2ccc3c(c2)c(=O)c(C(=O)O)cn3[C@H]2CNC[C@@H]2O)cn1 (relative stereo) [Example 310, trans 6-(6-(3-ethylureido)-4-(4-(trifluoromethyl)thiazol-2-yl)pyridin-3-yl)-1-(4-hydroxypyrrolidin-3-yl)-4-oxo-1,4-dihydroquinoline-3-carboxylic acid] | 106% |
| CCNC(=O)Nc1cc(-c2nc(C(F)(F)F)cs2)c(-c2ccc3c(c2)c(=O)c(C(=O)N2CCNCC2)cn3C2CN(C)C2)cn1 [Example 171, 1-ethyl-3-(5-(1-(1-methylazetidin-3-yl)-4-oxo-3-(piperazine-1-carbonyl)-1,4-dihydroquinolin-6-yl)-4-(4-(trifluoromethyl)thiazol-2-yl)pyridin-2-yl)urea] | 112% |
| CC(C)NC(=O)Nc1cc(-c2nc(C(F)(F)F)cs2)c(-c2ccc3c(c2)c(=O)c(C(=O)O)cn3CCC2CCN(C)CC2)cn1 [Example 202, 6-(6-(3-isopropylureido)-4-(4-(trifluoromethyl)thiazol-2-yl)pyridin-3-yl)-1-(2-(1-methylpiperidin-4-yl)ethyl)-4-oxo-1,4-dihydroquinoline-3-carboxylic acid] | 103% |
| CCNC(=O)Nc1cc(-c2nc(C(F)(F)F)cs2)c(-c2ccc3c(c2)c(=O)c(C(=O)O)cn3C[C@H]2CCN(CCN3CCOCC3)C2)cn1 [Example 238, (S)-6-(6-(3-ethylureido)-4-(4-(trifluoromethyl)thiazol-2-yl)pyridin-3-yl)-1-((1-(2-morpholinoethyl)pyrrolidin-3-yl)methyl)-4-oxo-1,4-dihydroquinoline-3-carboxylic acid] | 97% |
| CCNC(=O)Nc1cc(-c2nc(C(F)(F)F)cs2)c(-c2ccc3c(=O)c(C(=O)NCCN(C)C)cn(CCOC)c3c2)cn1 [Example 372, N-[2-(dimethylamino)ethyl]-7-{6-[(ethylcarbamoyl)amino]-4-[4-(trifluoromethyl)-1,3-thiazol-2-yl]pyridin-3-yl}-1-(2-methoxyethyl)-4-oxo-1,4-dihydroquinoline-3-carboxamide] | 98% |
| COCCn1cc(C(=O)O)c(=O)c2cc(-c3cnc(NC(=O)NC(C)C)cc3-c3nc(C(F)(F)F)cs3)ccc21 [Example 194, 6-(6-(3-isopropylureido)-4-(4-(trifluoromethyl)thiazol-2-yl)pyridin-3-yl)-1-(2-methoxyethyl)-4-oxo-1,4-dihydroquinoline-3-carboxylic acid] | 93% |
| CCNC(=O)Nc1cc(-c2nc(-c3ccccc3)cs2)c(-c2ccc3c(c2)c(=O)c(C(=O)O)cn3CC)cn1 [Example 16, 1-ethyl-6-(6-(3-ethylureido)-4-(4-phenylthiazol-2-yl)pyridin-3-yl)-4-oxo-1,4-dihydroquinoline-3-carboxylic acid] | 101% |
| CCNC(=O)Nc1cc(-c2nc(C(F)(F)F)cs2)c(-c2ccc3c(c2)c(=O)c(C(=O)NCC(O)CO)cn3C2CC2)cn1 (stereo not shown) [Example 328, 1-Cyclopropyl-N-(2,3-dihydroxy-propyl)-6-(6-(3-ethylureido)-4-(4-(trifluoromethyl)thiazol-2-yl)pyridin-3-yl)-4-oxo-1,4-dihydroquinoline-3-carboxamide] | 109% |
| CCCNC(=O)Nc1cc(-c2nc(C(F)(F)F)cs2)c(-c2ccc3c(c2)c(=O)c(C(=O)NCCO)cn3CCC2CCN(C)CC2)cn1 [Example 213] | 94% |
| CCNC(=O)Nc1cc(-c2nc(CC)cs2)c(-c2ccc3c(=O)c(C(=O)NC)cn(CC)c3c2)cn1 [Example 36, 1-ethyl-7-(4-(4-ethylthiazol-2-yl)-6-(3-ethylureido)pyridin-3-yl)-N-methyl-4-oxo-1,4-dihydroquinoline-3-carboxamide] | 64% |
| CCCNC(=O)Nc1cc(-c2nc(C(F)(F)F)cs2)c(-c2ccc3c(c2)c(=O)c(C(=O)NCCO)cn3CCC2CCOCC2)cn1 [Example 214, N-(2-hydroxyethyl)-4-oxo-6-(6-(3-propylureido)-4-(4-(trifluoromethyl)thiazol-2-yl)pyridin-3-yl)-1-(2-(tetrahydro-2H-pyran-4-yl)ethyl)-1,4-dihydroquinoline-3-carboxamide] | 118% |
| CCNC(=O)Nc1cc(-c2nc(C(F)(F)F)cs2)c(-c2ccc3c(c2)c(=O)c(C(=O)N2CCN(S(=O)(=O)N(C)C)CC2)cn3C2CN(C)C2)cn1 [Example 165, 4-(6-(6-(3-ethylureido)-4-(4-(trifluoromethyl)thiazol-2-yl)pyridin-3-yl)-1-(1-methylazetidin-3-yl)-4-oxo-1,4-dihydroquinoline-3-carbonyl)-N,N-dimethylpiperazine-1-sulfonamide] | 109% |
| CCNC(=O)Nc1cc(-c2nc(C(F)(F)F)cs2)c(-c2ccc3c(=O)c(C(=O)NCCCO)cn(Cc4ccccc4)c3c2)cn1 [Example 355, 1-Benzyl-7-{6-[(ethylcarbamoyl)amino]-4-[4-(trifluoromethyl)-1,3-thiazol-2-yl]pyridin-3-yl}-N-(3-hydroxypropyl)-4-oxo-1,4-dihydroquinoline-3-carboxamide] | 87% |
| CCNC(=O)Nc1cc(-c2nc(C(F)(F)F)cs2)c(-c2ccc3c(=O)c(C(=O)NCCN4CCN(C)CC4)cn(CCO)c3c2)cn1 [Example 368, 7-{6-[(Ethylcarbamoyl)amino]-4-[4-(trifluoromethyl)-1,3-thiazol-2-yl]pyridin-3-yl}-1-(2-hydroxyethyl)-N-[2-(4-methylpiperazin-1-yl)ethyl]-4-oxo-1,4-dihydroquinoline-3-carboxamide] | 87% |
| CCNC(=O)Nc1cc(-c2nc(C(F)(F)F)cs2)c(-c2ccc3c(c2)c(=O)c(C(=O)O)cn3CCCO)cn1 [Example 320, 6-(6-(3-Ethylureido)-4-(4-(trifluoromethyl)thiazol-2-yl)pyridin-3-yl)-1-(3-hydroxy-propyl)-4-oxo-1,4-dihydro-quinoline-3-carboxylic acid] | 98% |
| CCCn1cc(C(=O)NCCN2CCN(C)CC2)c(=O)c2ccc(-c3cnc(NC(=O)NCC)cc3-c3nc(C(F)(F)F)cs3)cc21 [Example 352, 7-{6-[(Ethylcarbamoyl)amino]-4-[4-(trifluoromethyl)-1,3-thiazol-2-yl]pyridin-3-yl}-N-[2-(4-methylpiperazin-1-yl)ethyl]-4-oxo-1-propyl-1,4-dihydroquinoline-3-carboxamide] | 88% |
| CCNC(=O)Nc1cc(-c2nc(C(F)(F)F)cs2)c(-c2ccc3c(c2)c(=O)c(C(=O)O)cn3[C@H](CO)C(C)C)cn1 [Example 82, 6-{6-[(ethylcarbamoyl)amino]-4-[4-(trifluoromethyl)-1,3-thiazol-2-yl]pyridin-3-yl}-1-[(1S)-1-(hydroxymethyl)-2-methylpropyl]-4-oxo-1,4-dihydroquinoline-3-carboxylic acid] | 111% |
| CCNC(=O)Nc1cc(-c2nc(C(F)(F)F)cs2)c(-c2ccc3c(c2)c(=O)c(C(=O)O)cn3C[C@H]2CCNC2)cn1 [Example 243, (S)-6-(6-(3-ethylureido)-4-(4-(trifluoromethyl)thiazol-2-yl)pyridin-3-yl)-4-oxo-1-(pyrrolidin-3-ylmethyl)-1,4-dihydroquinoline-3-carboxylic acid] | 116% |
| CCNC(=O)Nc1cc(-c2nc(C(F)(F)F)cs2)c(-c2ccc3c(c2)c(=O)c(C(=O)NCCCO)cn3C2CC2)cn1 [Example 147, 1-cyclopropyl-6-(6-(3-ethylureido)-4-(4-(trifluoromethyl)thiazol-2-yl)pyridin-3-yl)-N-(3-hydroxypropyl)-4-oxo-1,4-dihydroquinoline-3-carboxamide] | 102% |
| CCNC(=O)Nc1cc(-c2nc(C(F)(F)F)cs2)c(-c2ccc3c(c2)c(=O)c(C(=O)O)cn3CC2CCN(CC3CCCO3)C2)cn1 (stereo not shown) [Example 307, 6-(6-(3-ethylureido)-4-(4-(trifluoromethyl)thiazol-2-yl)pyridin-3-yl)-4-oxo-1-((1-((tetrahydrofuran-2-yl)methyl)pyrrolidin-3-yl)methyl)-1,4-dihydroquinoline-3-carboxylic acid] | 105% |
| CCNC(=O)Nc1cc(-c2nc(C(F)(F)F)cs2)c(-c2ccc3c(=O)c(C(=O)NCCN4CCOCC4)cn(CCC(C)C)c3c2)cn1 [Example 339, 7-{6-[(ethylcarbamoyl)amino]-4-[4-(trifluoromethyl)-1,3-thiazol-2-yl]pyridin-3-yl}-1-(3-methylbutyl)-N-[2-(morpholin-4-yl)ethyl]-4-oxo-1,4-dihydroquinoline-3-carboxamide] | 109% |
| CCNC(=O)Nc1cc(-c2nc(C(F)(F)F)cs2)c(-c2ccc3c(c2)c(=O)c(C(=O)O)cn3C[C@@H]2CCCN(CC)C2)cn1 [Example 251, (R)-1-((1-ethylpiperidin-3-yl)methyl)-6-(6-(3-ethylureido)-4-(4-(trifluoromethyl)thiazol-2-yl)pyridin-3-yl)-4-oxo-1,4-dihydroquinoline-3-carboxylic acid] | 113% |
| CCNC(=O)Nc1cc(-c2nc(C(F)(F)F)cs2)c(-c2ccc3c(c2)c(=O)c(C(=O)O)cn3[C@@H]2CCCN(CCO)C2)cn1 [Example 292, (R)-6-(6-(3-ethylureido)-4-(4-(trifluoromethyl)thiazol-2-yl)pyridin-3-yl)-1-(1-(2-hydroxyethyl)piperidin-3-yl)-4-oxo-1,4-dihydroquinoline-3-carboxylic acid] | 102% |
